The values that follow come from the NIST ThermoML archive (doi:10.1016/j.tca.2004.12.009).

± gives the expanded uncertainty stated by the source.

The conditions of data set [1]: DTA.
Data set [2] is described as follows: Molar enthalpy of transition or fusion. Particulars: DSC.

As to `NC(N)=Nc1nc(CSCC/C(N)=N/S(N)(=O)=O)cs1` [famotidine], the Normal melting temperature in data set [1] (Crystal 1) came to 170.60 ± 0.6 °C; in data set [1] (Metastable crystal) it was 162.90 ± 0.9 °C. Further, the “Molar enthalpy of transition or fusion” value is 13.2 ± 0.43 kcal/mol in data set [2] (Crystal 1) and 12.2 ± 0.813 kcal/mol in data set [2] (Metastable crystal).
